Earlier results on one compound are cited in patent US7662581B1, “Eg5 co-crystals” (Novartis Vaccines and Diagnostics, Inc., priority 2003, dated 2010).

One data set has as its system HsEg5. As to conditions: protein level.
Data set [1] relates to DAN-G pancreatic carcinoma cells.

Regarding `CC1=C(/C=C/C(C)=C/C=C/C(C)=C/C(=O)O)C(C)(C)CCC1` [ATRA, all trans-retinoic acid], the HsEg5 expression entry in the data set with HsEg5 was “reduces HsEg5 expression on protein level”. In addition, the growth inhibition result in data set [1] was “significant growth inhibition”.
